Source: ChEMBL document CHEMBL4699620, “Peptide Inhibitors of the α-Cobratoxin-Nicotinic Acetylcholine Receptor Interaction” (J Med Chem, 2020)
pIC50, pKi: −log10 of the molar value. Where a SMILES comes first, the peptide text is derived from it. [ ]: non-standard residue; d: D form. PEG6 = NCCOCCOCCOCCOCCOCCOCCC(=O)O

What was measured:
[1] = Stability of compound in PBS buffer assessed as compound degradation measured after 9 days at room temperature by HPLC analysis; type: physicochemical; conditions: time 9 day, read-out: Drug degradation
[2] = Stability of compound in PBS buffer measured after 1 day at 37 degC by HPLC analysis; type: physicochemical; conditions: 24 h
[3] = Stability of compound in PBS buffer assessed as compound degradation measured after 2 days at 37 degC by HPLC analysis; type: physicochemical; conditions: time 2 day, read-out: Drug degradation
[4] = Stability of compound in PBS buffer measured after 1 day at room temperature by HPLC analysis; type: physicochemical; conditions: 24 h
[5] = molecular target: T1, Alpha-cobratoxin (Naja kaouthia, UniProt P01391); assay: Displacement of TAMRA-HAKTYMWDGWYMPTSH-NH2 from Naja kaouthia alpha-cobratoxin by fluorescence polarization assay
T1 sequence (P01391 whole entry): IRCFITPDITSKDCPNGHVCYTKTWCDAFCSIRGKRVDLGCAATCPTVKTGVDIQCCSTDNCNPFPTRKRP

Compound: CSCC[C@H](NC(=O)[C@H](Cc1ccc(O)cc1)NC(=O)[C@H](Cc1c[nH]c2ccccc12)NC(=O)CNC(=O)[C@H](CC(=O)O)NC(=O)[C@H](Cc1c[nH]c2ccccc12)NC(=O)[C@H](CCSC)NC(=O)[C@H](Cc1ccc(O)cc1)NC(=O)CCOCCOCCOCCOCCOCCOCCN)C(N)=O (H-[PEG6]YMWDGWYM-NH2)
- degraded at 216 h [1]: 7%
- Stabilty [2]: Stable
- degraded at 48 h [3]: 7%
- Stabilty [4]: Stable
- pKi [5]: 4.59

Compound: Ac-HAKTYMWDGWYMPTSH-NH2
- Stabilty [2]: Stable
- Stabilty [4]: Stable
- pIC50 [5]: 4.54
- pKi [5]: 5.70
